Where two headings read alike, the source gives them in different places.
Legend:
[1] = Toxicokinetic, plasma concentration of compound I-6-II after empty liposome preparation; type: in vivo, cynomolgus monkeys; conditions: for half-life / AUC(0-t) / Cmax / Tmax: cynomolgus monkey, plasma, intramuscular
Procedure: 1.9078 g of Compound I-6-II, 0.3985 g of DSPC, 0.7575 g of CHO-HP and 0.1972 g of PEG-DMG (average molecular weight of 2000) were weighed in the molar ratio of 49.5:10:39:1.5, dissolved in absolute ethanol and diluted to 237.5 mL to obtain an alcohol phase. The alcohol phase was mixed and encapsulated by using a microfluidic device (MPE-L^2), with an acetic acid-sodium acetate buffer (0.2 mol/L, pH=5) as the aqueous phase, and a volume ratio of aqueous phase:alcohol phase of 3:1. […]
The animal experiment was set up with a total of 5 groups (5 animals/gender/group), and the groups and the dosages thereof were as follows: negative control group (0 μg compound I-6-II/animal), empty liposome low-dosage group (300 μg compound I-6-II/animal) and empty liposome high-dosage group (1200 μg compound I-6-II/animal). The animals in each group were administered intramuscularly once every 2 weeks for a total of 3 times, i.e., administered on D1, D15 and D29.
Blood samples were collected from animals before and 4 h after the first (D1) and the last (D29) administration in the negative control group; and Blood samples were collected from animals before and 15 min, 1 h, 2 h, 4 h, 8 h, 24 h, 32 h and 48 h after the first (D1) and the last (D29) administration in the empty liposome group. The plasma concentration of compound I-6-II in cynomolgus monkeys was detected to investigate the exposure of compound I-6-II in cynomolgus monkeys after administration in each group of animals.
The main TK parameters of compound I-6-II in animals of the empty liposome low- and high-dosage groups after the first administration (D1) and the last administration (D29) are as shown in Table 7 below.

[2] = test system: SD rats; conditions: Covid-19 S protein mRNA-LNP, 100 μg mRNA/animal, intramuscular once a week for 3 weeks, versus ALC-0315 and SM-102, FIG. 9
[3] = test system: liver; assay: Targeting assay, fluorescence in liver after intramuscular injection; type: in vivo, mice; conditions: 15 μg mRNA per animal, 6 h after injection, dissected liver
Procedure: The lipids were mixed with DSPC, CHO-HP, M-DMG2000 (i.e. PEG2000-DMG) in a molar ratio of 50:10:38.5:1.5 and dissolved in absolute ethanol. mRNA was dissolved in a sodium acetate solution (0.2M, pH=5.0). The samples of various prescriptions were prepared at a water phase:alcohol phase=9 ml/min: 3 ml/min by using a microfluidic equipment (MPE-L2) and a chip (SN.000035). The two phases were mixed by injecting them into the microfluidic chip according to the interface requirements, and then the drug solution was loaded into a 100KD dialysis bags, immersed in a beaker containing 1 L dialysis solution and wrapped with aluminum foil, and dialyzed at 100 rpm for 1 h at room temperature, and then the dialysis solution was replaced and the dialysis continued for 1 h.
Formulation of dialysis solution: 1×PBS+8% sucrose solution: 2 packets of 1×PBS powder were taken into a beaker, dissolved with 2 L DEPC water, added with 160 g of sucrose additionally, and mixed to obtain the 1×PBS+8% sucrose solution.
The mass ratio of mRNA:Lipids in the obtained lipid nanoparticles were about 1:10.
Fluorescent protein-encoding mRNA-LNP preparations containing Compound (I-6-II), MC3 or SM102, respectively were prepared by using the formulation method of mRNA lipid nanoparticle (LNP) preparations as described above, selecting a fluorescent protein-encoding mRNA as the mRNA and the compound (I-6-II), MC3 or SM102, respectively as the lipid.
Each preparation to be tested was administered to mice by intramuscular injection, with each animal receiving 15 μg mRNA preparation sample. 6 h after sample injection, the mice were anesthetized by isoflurane inhalation, and injected intraperitoneally with 200 μL of D-Luciferin (concentration 10 mg/ml) luciferase development substrate. […] After development of living imaging of the intramuscularly injected animals, they were immediately dissected, followed by observation of the fluorescence in the liver immediately after the dissection.

[4] = female, im, 300 ug, empty liposome low-dosage group (300 μg compound I-6-II/animal), D 1, female, Mean
[5] = female, im, 300 ug, empty liposome low-dosage group (300 μg compound I-6-II/animal), D 29, female, Mean
[6] = female, im, 1200 ug, empty liposome high-dosage group (1200 μg compound I-6-II/animal), D 1, female, Mean
[7] = female, im, 1200 ug, empty liposome high-dosage group (1200 μg compound I-6-II/animal), D 29, female, Mean
[8] = male, im, 300 ug, empty liposome low-dosage group (300 μg compound I-6-II/animal), D 1, male, Mean
[9] = male, im, 300 ug, empty liposome low-dosage group (300 μg compound I-6-II/animal), D 29, male, Mean
[10] = male, im, 1200 ug, empty liposome high-dosage group (1200 μg compound I-6-II/animal), D 1, male, Mean
[11] = male, im, 1200 ug, empty liposome high-dosage group (1200 μg compound I-6-II/animal), D 29, male, Mean

Compound: CCCCCCCCCOC(=O)CCCCCCCN(CCCCCCCC(=O)OC(CCCCCCCC)CCCCCCCC)[C@@H]1CCC[C@H](O)C1 [Compound (I-6-II)]
- accumulation ([1]; after 4 weeks of continuous administration (3 times in total), cynomolgus monkeys): did not accumulate
- half-life ([1]; both sexes, cynomolgus monkeys, over the empty liposome groups, read-out: plasma half-life): 4.68 to 6.45 h
- AUC(0-t) [1, 4]: 838 ng·h/mL
- Cmax [1, 4]: 79.1 ng/mL
- Tmax [1, 4]: 3.2 h
- half-life ([1]; female, im, 300 ug, empty liposome low-dosage group (300 μg compound I-6-II/animal), D 1, female, Mean, read-out: t1/2 (converted)): 5.28 h
- AUC(0-t) [1, 5]: 783 ng·h/mL
- Cmax [1, 5]: 59.3 ng/mL
- Tmax [1, 5]: 6 h
- half-life ([1]; female, im, 300 ug, empty liposome low-dosage group (300 μg compound I-6-II/animal), D 29, female, Mean, read-out: t1/2 (converted)): 3.58 h
- AUC(0-t) [1, 6]: 4570 ng·h/mL
- Cmax [1, 6]: 334 ng/mL
- Tmax [1, 6]: 5 h
- half-life ([1]; female, im, 1200 ug, empty liposome high-dosage group (1200 μg compound I-6-II/animal), D 1, female, Mean, read-out: t1/2 (converted)): 5.07 h
- AUC(0-t) [1, 7]: 3090 ng·h/mL
- Cmax [1, 7]: 194 ng/mL
- Tmax [1, 7]: 8 h
- half-life ([1]; female, im, 1200 ug, empty liposome high-dosage group (1200 μg compound I-6-II/animal), D 29, female, Mean, read-out: t1/2 (converted)): 5.29 h
- AUC(0-t) [1, 8]: 652 ng·h/mL
- Cmax [1, 8]: 50.6 ng/mL
- Tmax [1, 8]: 4.8 h
- half-life ([1]; male, im, 300 ug, empty liposome low-dosage group (300 μg compound I-6-II/animal), D 1, male, Mean, read-out: t1/2 (converted)): 5.1 h
- AUC(0-t) [1, 9]: 623 ng·h/mL
- Cmax [1, 9]: 42.4 ng/mL
- Tmax [1, 9]: 7.2 h
- half-life ([1]; male, im, 300 ug, empty liposome low-dosage group (300 μg compound I-6-II/animal), D 29, male, Mean, read-out: t1/2 (converted)): 5.59 h
- AUC(0-t) [1, 10]: 2240 ng·h/mL
- Cmax [1, 10]: 198 ng/mL
- Tmax [1, 10]: 3.2 h
- half-life ([1]; male, im, 1200 ug, empty liposome high-dosage group (1200 μg compound I-6-II/animal), D 1, male, Mean, read-out: t1/2 (converted)): 6.07 h
- AUC(0-t) [1, 11]: 2280 ng·h/mL
- Cmax [1, 11]: 146 ng/mL
- Tmax [1, 11]: 8 h
- half-life ([1]; male, im, 1200 ug, empty liposome high-dosage group (1200 μg compound I-6-II/animal), D 29, male, Mean, read-out: t1/2 (converted)): 6.45 h
- moderate claudication [2]: significantly reduced or decreased
- severe swelling at the injection site [2]: significantly reduced or decreased
- fluorescence intensity in liver [3]: 2.49E+05
